The values that follow come from PubChem BioAssay (NCI).

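Interpolation was linear, between the two tested concentrations surrounding the appropriate level; five concentrations were tested over 48 hours in 96-well plates. GI50 marks 50% less growth. TGI: total growth inhibition.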

Among the test systems are HCC-2998 colon; HT29 colon; IGROV1 ovarian; KM12 colon; MOLT-4 leukemia; OVCAR-4 ovarian; SF-268 CNS; SK-MEL-2 melanoma; SNB-19 CNS; HS 578T breast.
Common to all, as to test: NCI-60 cell line screen, 48 h

On to `Cc1cc(NS(=O)(=O)c2ccc(NC(=O)c3cccc4c(Nc5ccc(S(=O)(=O)Nc6cc(C)on6)cc5)c5ccc(Cl)cc5nc34)cc2)no1`, for which the TGI with HCC-2998 colon, in the experiment on HT29 colon, in the experiment with IGROV1 ovarian, with KM12 colon, with MOLT-4 leukemia and in the experiment with OVCAR-4 ovarian was over 100 µM throughout. The TGI was over 100 µM in the experiment with SF-268 CNS, over 100 µM in the experiment on SK-MEL-2 melanoma and 81.8 µM in the experiment on SNB-19 CNS.
As to `CCN(CC)CCOc1ccc2c(-c3ccccc3)c(-c3ccc(OC)cc3)c(=O)oc2c1`, the GI50 is 4.22 µM in the experiment on HCC-2998 colon; 3.19 µM in the experiment with HS 578T breast; 3 µM in the experiment with HT29 colon; 3.83 µM with KM12 colon; 2.82 µM with MOLT-4 leukemia; 4.8 µM in the experiment with OVCAR-4 ovarian. In addition, the GI50 with SF-268 CNS is 8.4 µM; in the experiment with SNB-19 CNS it was 10.2 µM. Further, the TGI is 15 µM in the experiment on HCC-2998 colon; 15.5 µM in the experiment on HS 578T breast; 11.4 µM in the experiment with HT29 colon; 14.1 µM in the experiment on KM12 colon; 8.27 µM in the experiment with MOLT-4 leukemia; 18.1 µM in the experiment on OVCAR-4 ovarian. Also, the TGI in the experiment on SF-268 CNS stood at 21.7 µM; in the experiment with SNB-19 CNS, 22.2 µM.
In the case of `[CH3][Ge]([CH3])([CH2]CC#N)[S]c1ccccc1`, the GI50 is 0.0385 µM in the experiment on HCC-2998 colon; 17.8 µM in the experiment with HT29 colon; 0.371 µM with IGROV1 ovarian; 14.6 µM in the experiment on KM12 colon; 3.58 µM with MOLT-4 leukemia; 18.6 µM in the experiment on OVCAR-4 ovarian. Further, the values for the GI50 in the experiment with SF-268 CNS, in the experiment with SK-MEL-2 melanoma and with SNB-19 CNS were 18.6 µM, 14.7 µM and 18 µM, respectively. In addition, the TGI with HCC-2998 colon was over 100 µM; with HT29 colon, 32.9 µM; in the experiment with IGROV1 ovarian, 1.28 µM; with KM12 colon, 33.5 µM; with MOLT-4 leukemia it was 17.6 µM; in the experiment on OVCAR-4 ovarian, 50 µM. Further, the results for the TGI in the experiment on SF-268 CNS, in the experiment on SK-MEL-2 melanoma and in the experiment with SNB-19 CNS were 51.6 µM, 39.6 µM and 37.3 µM, respectively.
As to `CCN(CC)Cc1cc(Nc2ccnc3ccc(OC)cc23)ccc1O`, the GI50 with HCC-2998 colon is 2.35 µM; in the experiment with HS 578T breast, 9.35 µM; with HT29 colon it was 1.81 µM; with KM12 colon it was 3.21 µM; in the experiment on MOLT-4 leukemia it was 2.98 µM; in the experiment on OVCAR-4 ovarian, 2.54 µM. Besides, the GI50 is 3.61 µM with SF-268 CNS, 2.94 µM in the experiment with SK-MEL-2 melanoma and 8.4 µM in the experiment on SNB-19 CNS. Also, the TGI in the experiment with HCC-2998 colon amounted to 7.1 µM; in the experiment with HS 578T breast it was 30.6 µM; in the experiment with HT29 colon it was 4.45 µM; with KM12 colon it was 16 µM; in the experiment on MOLT-4 leukemia it was 16.8 µM; in the experiment with OVCAR-4 ovarian, 11.6 µM. In addition, the TGI with SF-268 CNS is 19.8 µM; in the experiment on SK-MEL-2 melanoma, 5.5 µM; in the experiment with SNB-19 CNS, over 100 µM.
For the compound `N#Cc1c(-c2ccccc2)nc(SCC(O)CN2CCOCC2)nc1N1CCOCC1` (stereo unspecified), the GI50 in the experiment on HCC-2998 colon is 47 µM; in the experiment on HS 578T breast, 6.22 µM; in the experiment with HT29 colon, 15.9 µM; in the experiment with KM12 colon, 30.2 µM; in the experiment with MOLT-4 leukemia it was 16.1 µM; in the experiment with OVCAR-4 ovarian it was 16.3 µM. The GI50 is 17.8 µM with SF-268 CNS and 15 µM in the experiment on SNB-19 CNS. The TGI in the experiment on HCC-2998 colon was over 100 µM; in the experiment on HS 578T breast it was 63.2 µM; in the experiment on HT29 colon, over 100 µM; in the experiment with KM12 colon, over 100 µM; in the experiment on MOLT-4 leukemia, over 100 µM; in the experiment on OVCAR-4 ovarian, over 100 µM. The TGI in the experiment on SF-268 CNS is over 100 µM; in the experiment on SNB-19 CNS, 94.8 µM.
`CN1C(=O)[C@@H](CC2CCCC2)N(C2CCCC2)c2nc(Nc3cc(Cl)c(O)c(Cl)c3)ncc21`: the GI50 in the experiment with HCC-2998 colon is 29.8 µM; in the experiment with HS 578T breast, 21.6 µM; with HT29 colon it was 26.7 µM; with IGROV1 ovarian it was 32.9 µM; in the experiment with KM12 colon, 37.5 µM; in the experiment with MOLT-4 leukemia, 12.2 µM. Besides, the GI50 with OVCAR-4 ovarian was 25.8 µM; with SF-268 CNS, 33 µM; in the experiment with SNB-19 CNS, 28.3 µM. In addition, the TGI in the experiment with HCC-2998 colon was over 100 µM; in the experiment with HS 578T breast, over 100 µM; in the experiment with HT29 colon it was 88.3 µM; with IGROV1 ovarian it was over 100 µM; with KM12 colon it was over 100 µM; in the experiment on MOLT-4 leukemia it was 56 µM. Also, the TGI in the experiment with OVCAR-4 ovarian, in the experiment with SF-268 CNS and in the experiment on SNB-19 CNS was over 100 µM throughout.
In the case of `COc1ccc(/C=C/C(=O)C(=O)/C=C/c2ccc(OC)c(OC)c2)cc1OC`, the GI50 with HCC-2998 colon is 1.72 µM; in the experiment with HS 578T breast, 2.71 µM; in the experiment on HT29 colon, 0.763 µM; in the experiment on KM12 colon it was 1.6 µM; in the experiment with MOLT-4 leukemia, 2.06 µM; with OVCAR-4 ovarian, 4.07 µM. Also, the GI50 is 2.53 µM in the experiment on SF-268 CNS, 30.6 µM in the experiment on SK-MEL-2 melanoma and 3.11 µM with SNB-19 CNS. For the same compound, the TGI with HCC-2998 colon is 3.21 µM; with HS 578T breast it was over 100 µM; in the experiment with HT29 colon, 2.62 µM; with KM12 colon, 3.67 µM; in the experiment on MOLT-4 leukemia, 19.3 µM; in the experiment with OVCAR-4 ovarian it was over 100 µM. For the same compound, the TGI is 8.58 µM in the experiment on SF-268 CNS, over 100 µM in the experiment with SK-MEL-2 melanoma and 23.3 µM in the experiment with SNB-19 CNS.
For `N#Cc1ncc(-c2ccc(C(F)(F)F)cc2)c(NC2CCCCCC2)n1`, the GI50 with HCC-2998 colon was 13.2 µM; in the experiment with HS 578T breast, 22.4 µM; in the experiment with HT29 colon, 9.35 µM; in the experiment with IGROV1 ovarian, 38.8 µM; in the experiment on KM12 colon it was 13.6 µM; in the experiment with MOLT-4 leukemia, 7.42 µM. For the same compound, the GI50 was 20.1 µM in the experiment with OVCAR-4 ovarian, 27.7 µM in the experiment on SF-268 CNS and 15.3 µM with SNB-19 CNS. For the same compound, the TGI in the experiment on HCC-2998 colon, with HS 578T breast, in the experiment on HT29 colon, in the experiment on IGROV1 ovarian, in the experiment with KM12 colon and with MOLT-4 leukemia was over 100 µM in each case. For the same compound, the TGI in the experiment with OVCAR-4 ovarian, in the experiment with SF-268 CNS and in the experiment with SNB-19 CNS was over 100 µM throughout.
